The text below walks through data of ChEMBL document CHEMBL1156868, “One step radiosynthesis of 6-[(18)F]fluoronicotinic acid 2,3,5,6-tetrafluorophenyl ester ([(18)F]F-Py-TFP): a new prosthetic group for efficient labeling of biomolecules with fluorine-18” (J Med Chem, 2010).

For the experiment, the target named is Integrin alpha-V/beta-3 (Homo sapiens, UniProt P05106+P06756). The experiment is described as follows: Displacement of [125I]echistatin from alphaVbeta3 receptor in human EA-Hy926 cells by gamma-counting. The experiment is classed as cell-based. Background: Displacement assays read how much labelled ligand stays bound in the presence of the test substance.

Molecules are shown by their SMILES. pKi: −log10 of the molar value.

Chain of Integrin alpha-V/beta-3 (P05106 27-788 limits assumed): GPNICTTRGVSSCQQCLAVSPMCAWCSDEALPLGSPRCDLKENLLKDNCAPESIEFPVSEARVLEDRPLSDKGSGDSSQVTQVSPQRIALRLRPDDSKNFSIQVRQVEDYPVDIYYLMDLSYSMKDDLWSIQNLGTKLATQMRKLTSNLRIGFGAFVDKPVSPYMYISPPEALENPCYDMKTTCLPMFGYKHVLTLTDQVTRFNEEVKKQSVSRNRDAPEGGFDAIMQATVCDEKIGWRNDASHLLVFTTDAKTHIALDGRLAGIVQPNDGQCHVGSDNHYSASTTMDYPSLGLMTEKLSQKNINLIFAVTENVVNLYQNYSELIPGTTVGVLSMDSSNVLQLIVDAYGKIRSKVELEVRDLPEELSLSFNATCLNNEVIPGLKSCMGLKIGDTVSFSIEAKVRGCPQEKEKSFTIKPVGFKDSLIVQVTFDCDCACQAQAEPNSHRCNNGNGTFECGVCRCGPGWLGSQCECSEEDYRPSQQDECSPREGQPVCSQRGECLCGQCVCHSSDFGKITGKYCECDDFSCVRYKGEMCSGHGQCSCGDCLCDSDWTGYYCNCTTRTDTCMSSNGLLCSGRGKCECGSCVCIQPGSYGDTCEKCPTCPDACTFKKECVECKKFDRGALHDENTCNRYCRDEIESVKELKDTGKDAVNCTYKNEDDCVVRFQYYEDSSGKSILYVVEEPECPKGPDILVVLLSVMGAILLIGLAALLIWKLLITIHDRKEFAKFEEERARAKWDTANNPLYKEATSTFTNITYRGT
Chain of Integrin alpha-V/beta-3 (P06756 31-889 limits assumed): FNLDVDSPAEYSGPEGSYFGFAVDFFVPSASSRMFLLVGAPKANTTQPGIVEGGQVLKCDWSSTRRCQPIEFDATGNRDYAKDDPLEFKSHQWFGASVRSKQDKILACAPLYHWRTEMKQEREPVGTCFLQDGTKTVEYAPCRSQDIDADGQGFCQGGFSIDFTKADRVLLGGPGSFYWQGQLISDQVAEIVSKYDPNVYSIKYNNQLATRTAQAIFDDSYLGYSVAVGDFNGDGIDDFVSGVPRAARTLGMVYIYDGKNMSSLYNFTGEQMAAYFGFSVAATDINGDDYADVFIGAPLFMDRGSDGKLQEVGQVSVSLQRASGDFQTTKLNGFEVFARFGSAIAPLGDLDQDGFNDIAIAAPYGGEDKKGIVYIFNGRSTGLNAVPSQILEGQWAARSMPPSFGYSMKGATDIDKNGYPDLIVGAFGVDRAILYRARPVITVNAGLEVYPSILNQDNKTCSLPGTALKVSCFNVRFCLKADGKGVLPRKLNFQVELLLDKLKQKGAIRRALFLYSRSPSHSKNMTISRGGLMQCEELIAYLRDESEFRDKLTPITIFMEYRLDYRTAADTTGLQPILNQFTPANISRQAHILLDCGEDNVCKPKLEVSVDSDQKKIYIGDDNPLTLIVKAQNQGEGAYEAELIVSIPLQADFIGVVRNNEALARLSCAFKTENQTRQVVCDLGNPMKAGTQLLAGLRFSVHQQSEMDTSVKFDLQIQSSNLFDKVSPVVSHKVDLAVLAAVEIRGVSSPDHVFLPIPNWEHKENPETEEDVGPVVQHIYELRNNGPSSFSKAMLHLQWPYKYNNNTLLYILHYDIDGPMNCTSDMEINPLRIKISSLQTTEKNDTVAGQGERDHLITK
Chain of Integrin alpha-V/beta-3 (P06756 891-1048 limits assumed): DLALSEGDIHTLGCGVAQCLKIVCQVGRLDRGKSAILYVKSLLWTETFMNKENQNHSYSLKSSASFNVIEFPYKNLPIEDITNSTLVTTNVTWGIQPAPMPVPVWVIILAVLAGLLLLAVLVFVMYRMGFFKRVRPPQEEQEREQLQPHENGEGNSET

One may read the pKi as −log10 of the Ki, conventionally taken in molar units. Read a low pKi as a large Ki. Consider `NC(=O)COCC(=O)NCCOCCOCCOCCNC(=O)[C@@H]1CSCC(=O)N[C@@H](CCCCNC(=O)COCC(=O)NCCOCCOCCOCCOCCOCCNC(=O)CONC(=O)c2ccc(F)nc2)C(=O)N[C@H]2CSSC[C@H](NC(=O)[C@H](CC(=O)O)NC(=O)CNC(=O)[C@H](CCCN=C(N)N)NC2=O)C(=O)N[C@@H](Cc2ccccc2)C(=O)C1`, for which the negative logarithm of the Ki (pKi) is 8.70.

`Cc1cc(C)c(S(=O)(=O)N[C@H](CNC(=O)c2cn(CCCNC(=O)COCC(=O)NCCOCCOCCOCCOCCOCCOCCOCCOCCOCCOCCOCCNC(=O)c3ccc(F)nc3)c3cc(CNc4ncc[nH]4)ccc3c2=O)C(=O)O)c(C)c1` showed a negative logarithm of the Ki (pKi) of 7.83. Turning to `Cc1cc(C)c(S(=O)(=O)N[C@H](CNC(=O)c2cn(CCCNC(=O)c3ccc(F)nc3)c3cc(CNc4ncc[nH]4)ccc3c2=O)C(=O)O)c(C)c1`, the pKi is 7.72.
